Tests used:
[1] = tested on: STEME; assay: Greenhouse experiment, post-emergence treatment; format: in vivo, Stellaria media; settings: post-emergence method, application rate 63 g/ha
Procedure: (§1) The seeds of the test plants were sown separately for each species. […] For this purpose, the test plants were either sown directly and grown in the same containers, or they were first grown separately as seedlings and transplanted into the test containers a few days prior to treatment. Depending on the species, the plants were kept at 10-25° C. or 20-35° C., respectively. The test period extended over 2 to 4 weeks. During this time, the plants were tended, and their response to the individual treatments was evaluated. Evaluation was carried out using a scale from 0 to 100. 100 means no emergence of the plants, or complete destruction of at least the aerial moieties, and 0 means no damage, or normal course of growth. A moderate herbicidal activity is given at values of at least 60, a good herbicidal activity is given at values of at least 70, and a very good herbicidal activity is given at values of at least 85. […] [table]

[2] = tested on: SETVI; assay: Greenhouse experiment, post-emergence treatment; format: in vivo, Setaria viridis; settings: post-emergence method, application rate 63 g/ha
Procedure: as §1

[3] = tested on: CAPBP; assay: Greenhouse experiment, post-emergence treatment; format: in vivo, Capsella bursa-pastoris; settings: post-emergence method, application rate 63 g/ha
Procedure: as §1

[4] = tested on: ECHCG; assay: Greenhouse experiment, post-emergence treatment; format: in vivo, Echinochloa crus-galli; settings: post-emergence method, application rate 125 g/ha
Procedure: as §1

[5] = tested on: SETFA; assay: Greenhouse experiment, post-emergence treatment; format: in vivo, Setaria faberi; settings: post-emergence method, application rate 125 g/ha
Procedure: as §1

[6] = tested on: ELEIN; assay: Greenhouse experiment, post-emergence treatment; format: in vivo, Eleusine indica; settings: post-emergence method, application rate 125 g/ha
Procedure: as §1

[7] = tested on: PHBPU; assay: Greenhouse experiment, post-emergence treatment; format: in vivo, Pharbitis purpurea; settings: post-emergence method, application rate 125 g/ha
Procedure: as §1

[8] = tested on: AMARE; assay: Greenhouse experiment, post-emergence treatment; format: in vivo, Amaranthus retroflexus; settings: post-emergence method, application rate 125 g/ha
Procedure: as §1

[9] = tested on: ALOMY; assay: Greenhouse experiment, pre-emergence treatment; format: in vivo, Alopecurus myosuroides; settings: pre-emergence method
Description: (§2) The culture containers used were plastic flowerpots containing loamy sand with approximately 3.0% of humus as the substrate. The seeds of the test plants were sown separately for each species.
(§3) For the pre-emergence treatment, the active ingredients, which had been suspended or emulsified in water, were applied directly after sowing by means of finely distributing nozzles. The containers were irrigated gently to promote germination and growth and subsequently covered with transparent plastic hoods until the plants had rooted. This cover caused uniform germination of the test plants, unless this had been impaired by the active ingredients.
(§4) Depending on the species, the plants were kept at 10-25° C. or 20-35° C., respectively.
(§5) The test period extended over 2 to 4 weeks. During this time, the plants were tended, and their response to the individual treatments was evaluated.
(§6) Evaluation was carried out using a scale from 0 to 100. 100 means no emergence of the plants, or complete destruction of at least the aerial moieties, and 0 means no damage, or normal course of growth. A moderate herbicidal activity is given at values of at least 60, a good herbicidal activity is given at values of at least 70, and a very good herbicidal activity is given at values of at least 85.
(§7) The plants used in the greenhouse experiments were of the following species: […]

[10] = tested on: ECHCG; assay: Greenhouse experiment, pre-emergence treatment; format: in vivo, Echinochloa crus-galli; settings: pre-emergence method
Description: as §2, §3, §4, §5, §6, §7

[11] = tested on: SETFA; assay: Greenhouse experiment, pre-emergence treatment; format: in vivo, Setaria faberi; settings: pre-emergence method
Description: (§8) The seeds of the test plants were sown separately for each species. For the pre-emergence treatment, the active ingredients, which had been suspended or emulsified in water, were applied directly after sowing by means of finely distributing nozzles. The containers were irrigated gently to promote germination and growth and subsequently covered with transparent plastic hoods until the plants had rooted. This cover caused uniform germination of the test plants, unless this had been impaired by the active ingredients. Depending on the species, the plants were kept at 10-25° C. or 20-35° C., respectively. The test period extended over 2 to 4 weeks. During this time, the plants were tended, and their response to the individual treatments was evaluated. Evaluation was carried out using a scale from 0 to 100. 100 means no emergence of the plants, or complete destruction of at least the aerial moieties, and 0 means no damage, or normal course of growth. A moderate herbicidal activity is given at values of at least 60, a good herbicidal activity is given at values of at least 70, and a very good herbicidal activity is given at values of at least 85. […] [table]

[12] = tested on: APESV; assay: Greenhouse experiment, pre-emergence treatment; format: in vivo, Apera spica-venti; settings: pre-emergence method
Description: as §2, §3, §4, §5, §6, §7

[13] = tested on: ABUTH; assay: Greenhouse experiment, post-emergence treatment; format: in vivo, Abutilon theophrasti; settings: post-emergence method, application rate 125 g/ha
Procedure: as §1

[14] = tested on: AMARE; assay: Greenhouse experiment, pre-emergence treatment; format: in vivo, Amaranthus retroflexus; settings: pre-emergence method
Description: as §8

Structure (SMILES): CC(C)(F)c1nc(N)nc(Nc2c(F)cccc2Oc2cc(C(F)(F)F)cc(C(F)(F)F)c2)n1 [Example 52]
- herbicidal activity against STEME [1]: very good (a very good herbicidal activity is given at values of at least 85)
- herbicidal activity against SETVI [2]: very good (a very good herbicidal activity is given at values of at least 85)
- herbicidal activity against CAPBP [3]: very good (a very good herbicidal activity is given at values of at least 85)

Structure (SMILES): CC(C)(F)c1nc(N)nc(Nc2c(F)cccc2Oc2cc(I)cc(I)c2)n1 [Example 67]
- herbicidal activity against ECHCG [4]: good (a good herbicidal activity is given at values of at least 70)
- herbicidal activity against SETFA [5]: good (a good herbicidal activity is given at values of at least 70)

Structure (SMILES): CC(C)(F)c1nc(N)nc(Nc2c(F)cccc2Oc2cc(Cl)cc(OC(F)(F)F)c2)n1 [Example 64]
- herbicidal activity against ELEIN [6]: very good (a very good herbicidal activity is given at values of at least 85)
- herbicidal activity against PHBPU [7]: very good (a very good herbicidal activity is given at values of at least 85)
- herbicidal activity against SETFA [5]: very good (a very good herbicidal activity is given at values of at least 85)

Structure (SMILES): COc1cc(C)cc(Oc2cccc(F)c2Nc2nc(N)nc(C(C)(C)F)n2)c1 [Example 63]
- herbicidal activity against AMARE [8]: very good (a very good herbicidal activity is given at values of at least 85)
- herbicidal activity against ECHCG [4]: very good (a very good herbicidal activity is given at values of at least 85)
- herbicidal activity against SETFA [5]: very good (a very good herbicidal activity is given at values of at least 85)

Structure (SMILES): COC(C)(C)c1nc(N)nc(Nc2c(F)cccc2Oc2cc(C)cc(C)c2)n1 [Example 36]
- herbicidal activity against ALOMY ([9]; application rate 0.25 kg/ha): good (a good herbicidal activity is given at values of at least 70)
- herbicidal activity against ECHCG ([10]; application rate 1000 g/ha): very good (a very good herbicidal activity is given at values of at least 85)
- herbicidal activity against SEFTA ([11]; application rate 1000 g/ha): very good (a very good herbicidal activity is given at values of at least 85)
- herbicidal activity against APESV ([12]; application rate 0.25 kg/ha): very good (a very good herbicidal activity is given at values of at least 85)
- herbicidal activity against APESV ([12]; application rate 1000 g/ha): very good (a very good herbicidal activity is given at values of at least 85)

Structure (SMILES): CC(C)(F)c1nc(N)nc(Nc2c(F)cccc2Oc2cc(F)cc(I)c2)n1 [Example 101]
- herbicidal activity against ALOMY ([9]; application rate 250 g/ha): good (a good herbicidal activity is given at values of at least 70)
- herbicidal activity against ECHCG ([10]; application rate 250 g/ha): very good (a very good herbicidal activity is given at values of at least 85)
- herbicidal activity against SEFTA ([11]; application rate 250 g/ha): very good (a very good herbicidal activity is given at values of at least 85)

Structure (SMILES): COc1cc(Oc2cccc(F)c2Nc2nc(N)nc(C(C)(C)F)n2)cc(C(F)(F)F)c1 [Example 65]
- herbicidal activity against ABUTH [13]: very good (a very good herbicidal activity is given at values of at least 85)
- herbicidal activity against ECHCG [4]: very good (a very good herbicidal activity is given at values of at least 85)
- herbicidal activity against SETFA [5]: very good (a very good herbicidal activity is given at values of at least 85)

Structure (SMILES): CC(C)Oc1cc(F)cc(Oc2cccc(F)c2Nc2nc(N)nc(C(C)(C)F)n2)c1 [Example 99]
- herbicidal activity against ALOMY ([9]; application rate 500 g/ha): very good (a very good herbicidal activity is given at values of at least 85)
- herbicidal activity against AMARE ([14]; application rate 500 g/ha): very good (a very good herbicidal activity is given at values of at least 85)
- herbicidal activity against ECHCG ([10]; application rate 500 g/ha): very good (a very good herbicidal activity is given at values of at least 85)

Structure (SMILES): CCOc1cc(OCC)cc(Oc2cccc(F)c2Nc2nc(N)nc(C(C)(C)F)n2)c1 [Example 68]
- herbicidal activity against ABUTH [13]: very good (a very good herbicidal activity is given at values of at least 85)
- herbicidal activity against ECHCG [4]: very good (a very good herbicidal activity is given at values of at least 85)
- herbicidal activity against SETFA [5]: very good (a very good herbicidal activity is given at values of at least 85)

Structure (SMILES): CC(C)(F)c1nc(N)nc(Nc2c(F)cccc2Oc2ccccc2)n1 [Example 25]
- herbicidal activity against ALOMY ([9]; application rate 0.25 kg/ha): very good (a very good herbicidal activity is given at values of at least 85)
- herbicidal activity against AMARE ([14]; application rate 0.25 kg/ha): very good (a very good herbicidal activity is given at values of at least 85)
- herbicidal activity against APESV ([12]; application rate 0.25 kg/ha): very good (a very good herbicidal activity is given at values of at least 85)

Source: US10029992B2, “Diaminotriazine compounds and their use as herbicides” (BASF SE, priority 2014, dated 2018)
